Source: patent US6451852B2, “Phenylacetonitrilealkylaminoalkyl-ortho-substituted aryl compounds as immunosuppressives” (G. D. Searle & Co., priority 1989, dated 2002)
Where a name gives a salt, the structure may show the parent alone.

Experiments:
[1] = tested on: excised aortic segment (Ca++ induced vascular smooth muscle contraction); experiment: Assay F: Calcium Antagonist Effects; details: K+ (100 mM) depolarized aortic segment, 1 hr incubation with test compound at 10^-6M
Experimental: Assay F: Calcium Antagonist Effects
An excised aortic segment was mounted in a tissue bath containing modified Krebs solution. After depolarization of the tissue with K^+ (100 mM), Ca^++, in cumulative concentrations of 10^−3M, 3.2×10^−3M and 10^−2M, was injected into the bath to produce vascular smooth muscle contraction. The developed tension (g) was measured and control dose-response values are obtained. After 1 hr incubation with a test compound at 10^−6M concentration, the same doses of Ca^++ are repeated. The log dose-response curves of control and after treatment were analyzed by linear regression.

[2] = tested on: human peripheral blood mononuclear cells (PMNC) cocultured with mitomycin-C inactivated Raji stimulator cell line; experiment: Assay C: One-Way Mixed Lymphocyte Reaction (Human); type: cell-based; details: one-way MLR, human PMNC vs Raji, 120 hours, 3H-thymidine
Description: Assay C: One-Way Mixed Lymphocyte Reaction (Human)
The mixed lymphocyte reaction (MLR) is an assay that measures T-cell blast cell transformation and mitosis which occurs when lymphocytes from different major and minor histocompatibility complex (MHC) haplotypes are cocultured. This response is considered a “one-way MLR” when stimulator cells are made unresponsive by inhibition of DNA synthesis (treatment with mitomycin-C or gamma-irradiation) prior to coculture with responder cells. This assay can be used as an indicator of the cellular immunomodulation mechanisms involved in transplant rejection. In this assay, human peripheral blood mononuclear cells(PMNC) were used as the responder cell population and were isolated from normal donor blood as follows: Blood samples were collected in LeucoPREP™ tubes (Becton Dickinson, Lincoln Park, N.J.) and the mononuclear cell preparation was obtained by following the manufacturers procedures. Isolated mononuclear cells were co-incubated at 6×10^4 cells/well with a stimulator cell line at 2×10^4 cells/well in RPMI 1640 medium containing 5% fetal bovine serum and 2-mercaptoethanol (40 μM). The stimulator cell line, Raji, which was derived from a human Burkitt lymphoma (American Type Culture Collection, Rockville Md.) was previously inactivated by mitomycin-C treatment (Sigma, St. Louis Mo., 25 μg/ml, 370 for 30 minutes). After repeated washings of mitomycin-C from the stimulator cell line, cocultures were incubated in 96 well microtiter plates at 37° C., in 95% air/5% CO2 atmosphere for 120 hours in the presence or absence of test compounds (0.1-25 μM). Inhibition of proliferation was measured by reduced incorporation of ^3H-thymidine (0.5 μCi/well, added during the last 24 hours of the assay). The IC50 values for the immunosuppressant compounds were calculated by four parameter logistic regression analysis of the results [Delean et al, Id.]

[3] = tested on: PHA stimulated human donor peripheral blood mononuclear cells (PMNC); experiment: Assay B: Suppression of Human Mitogen Stimulation; type: cell-based; details: inhibition of PHA stimulated proliferation of human PMNC, 96 hrs, 3H-thymidine
Experimental: Assay B: Suppression of Human Mitogen Stimulation Assay
Normal human donor peripheral blood mononuclear cells (PMNC) were isolated by density centrifugation using Ficoll-Paque(Pharacia LKB, Uppsala Sweden, 350 RCF 45 minutes). Cells were washed and incubated at 37° C. in 95%air/5% CO2 atmosphere in 96 well microtiter plates (2×10^5 cells/well) for 96hrs with RPMI 1640 medium containing 5% fetal bovine serum and 2-mercaptoethanol ([…]), Phytohemagglutinin (Difco, Detroit, MI 10 μg/ml) in the presence or absence of test compounds. Inhibition of PHA stimulated proliferation was measured by reduced incorporation of ^3H-thymidine (0.5 μCi/well, added during the last 24 hours of the assay). When possible, the IC50 values for active immunosuppressant compounds were calculated by four parameter logistic regression analysis of the results [Delean et al, DE ].

[4] = tested on: ConA-stimulated spleen cells from female Balb/c mice; experiment: Assay A: Suppression of Mitogen-Stimulated Proliferation (Murine); type: cell-based, mouse; details: inhibition of ConA-stimulated proliferation of murine spleen cells, 5 days, MTT
Description: Assay A: Suppression of Mitogen-Stimulated Proliferation (Murine)
It is known that lymphocyte activation can be polyclonally stimulated by plant lectins and other mitogens that induce blast transformation and mitosis. Certain mitogens like Concanavalin A (ConA), preferentially activate T-lymphocytes. Exposure to ConA results in polyclonal activation of T-cells and can be used as an in vitro index for general immunomodulation of pan T-cell activity. In this assay spleen cells harvested from female Balb/c mice were incubated at 37° C., in 95% air/5% CO2 atmosphere in 96 well microtiter plates (10^5 cells/well) for 5 days with Iscove's modified Dulbecco's medium [25 mM HEPES 2 mM L-glutamine, 5% fetal bovine serum and 2-mercaptoethanol (40 μM)] (100 μl/well), concanavalin A (ConA) alone (Sigma, St. Louis, Mo.; 1.0 μg/ml) or ConA in the presence of test compounds (0.001-25 μM). Inhibition of ConA-stimulated proliferation was measured by calorimetric indicator of growth and proliferation, MTT (3-(4,5-dimethylthiazol-2-yl)-2 diphenyl tetrazolium bromide; (100 μl/well, 1 mg/ml) Sigma) [Mosmann, T., J. of Immunological Methods, 65, 55-63, […]]. After four hours, plates were centrifuged (1200 rpm) media supernatants aspirated and dye loaded cells were solubilized in isopropanol (150 μl/well). The absorbance was measured on an ELISA plate reader with a test wavelength of 570 nm and a reference of 630 nm. The IC50 values for active immunosuppressant compounds were calculated by four parameter logistic regression analysis of the results [Delean et al, Am. J. Physiol., 2, 397 (1978)].

[5] = tested on: anesthetized spontaneously hypertensive rat; experiment: Assay H: Blood Pressure Reducing Effects; type: in vivo; details: intragastrically at 10^-3M, readings 1, 2, 3 and 4 hours after administration
Experimental: Assay H: Blood Pressure Reducing Effects
Systemic blood pressure effects were assessed in vivo in an anesthetized spontaneously hypertensive rat. The test compound was administered intragastrically at 10^−[…]. Initial mean arterial blood pressure (MAP) was measured directly via a previously implanted arterial catheter immediately before administration of the compound. Blood pressure readings were made 1, 2, 3, and 4 hours after administration of the test compound.

Human mononuclear cells = experiment: Assay D: Calcium Flux Assay (human mononuclear cells); type: cell-based; details: at 2×, 5× and 10× the IC50 values of Assay A
Description: Assay D: Calcium Flux Assay
One of the earliest requirements of lymphocyte activation involves the rapid mobilization of intracellular calcium and the sustained influx of extracellular calcium. These cellular responses to lymphocyte activators can be measured by calcium-binding fluorescent dyes such as Indo-1 [P. S. Rabinovitch, et al J. Immunol, 137, 952 (1986)]. The rapid and sustained changes in intracellular calcium can be used to discriminate classes of immunomodulatory compounds which alter early events in lymphocyte activation. Human mononuclear cells or the human Jurkat T-cell line (ATCC, Rockville Md.) were loaded with the calcium-sensitive dye, Indo-1 (5 μM), washed and incubated for 2-5 minutes in the presence or absence of test compounds. Calcium flux was initiated in lymphocytes by the binding of crosslinked antibody to the T cell receptor(αCD3 at 250 ng/ml followed by goat-anti-mouse IgG) or the lectin Phytohemagglutinin (PHA, 100 ug/ml). Jurkat cell activation was initiated by the addition of purified antibody to the T cell receptor (αCD3, 250 ng/ml). Subsequent changes in the concentration if intracellular calcium was monitored over time (6 min) by flow cytometry (Epics 753, Coulter Electronics, Hialeah Fla.) to determine modulation of the initial calcium-mediated activation of the cells [P. S. Rabinovitch, et al, E]. […]

adult male SHR = experiment: Assay G: Calcium Channel Blocker Effects (vascular resistance, microspheres); type: in vivo, rat; details: I.V. bolus of 1.0 mg/kg, Control (DMSO) 240
Experimental: Assay G: Calcium Channel Blocker Effects
Under ether anesthesia, the jugular vein, femoral artery and left ventricle of adult male SHR were cannulated. After a 3-5 hour recovery period, animals ere treated with either test compound or placebo. Ten minutes was allowed for steady state conditions to be reached. Arterial pressure was then monitored via the femoral cannula. Immediately after this measurement, the reference blood sample was taken and radioactively-labeled microspheres were injected into the left ventricle. Rats were then sacrificed; organs were removed, weighed and counted. Cardiac output was computed. Percent cardiac output distribution per gram tissue, flow per gram tissue, and resistance times gram tissue were calculated fro the following organs: brain, heart, kidneys, splanchnic organs (liver plus pancreas, spleen and G. I. tract), skeletal muscle and skill. The tested compound was administered as an I.V. bolus of 1.0 mg/kg. Differences in mean values between treatment and control groups were analyzed by a one-way one variable analysis and least significant difference test.

Structure (SMILES)	IC50 [2]	IC50 ([3]; Homo sapiens, PBMC)	IC50 ([4]; Mus musculus, 120 h)	other results
COC(=O)c1cc(OC)c(OC)cc1CCN(C)CCCC(C#N)(c1ccc(OC)c(OC)c1)C(C)C (stereo not shown) [Example 1, methyl 2-[2-[[4-cyano-4-(3,4-dimethoxyphenyl)-5-methylhexyl]methylamino]ethyl]-4,5-dimethoxybenzoate]				pA2 [1]: 6.81
COC(=O)c1cc(OC)c(OC)cc1CCN(C)CCCC(C#N)(c1ccc(OC)c(OC)c1)C(C)C (stereo not shown) [Example 2, methyl 2-[2-[[4-cyano-4-(3,4-dimethoxyphenyl)-5-methylhexyl]methylamino]ethyl]-4,5-dimethoxybenzoate, 2-hydroxy-1,2,3-propanetricarboxylic acid salt]	4.3 µM	5.4 µM	7.1 µM	
COC(=O)c1cc(OC)c(OC)cc1CCN(C)CCCC(C#N)(c1ccc(OC)c(OC)c1)C(C)C (stereo not shown) [Example 3, methyl 2-[2-[[4-cyano-4-(3,4-dimethoxyphenyl)-5-methylhexyl]methylamino]ethyl]-4,5-dimethoxybenzoate, 2,3-dihydroxybutanedioic acid salt]				IC50 [3]: 5.3 µM; IC50 [4]: 8.7 µM
COc1ccc(C(C#N)(CCCN(C)CCc2cc(OC)c(OC)cc2C(=O)NC(C)(C)C)C(C)C)cc1OC (stereo not shown) [Example 4, 2-[2-[[4-cyano-4-(3,4-dimethoxyphenyl)-5-methylhexyl]methylamino]ethyl]-N-(1,1-dimethylethyl)-4,5-dimethoxybenzamide, 2-hydroxy-1,2,3-propanetricarboxylic acid salt]	8.9 µM	9.9 µM	13.3 µM	Decrease in MAP [5]: 18 mm Hg; pA2 [1]: 6.56
CCNC(=O)c1cc(OC)c(OC)cc1CCN(C)CCCC(C#N)(c1ccc(OC)c(OC)c1)C(C)C (stereo not shown) [Example 5, 2-[2-[[4-cyano-4-(3,4-dimethoxyphenyl)-5-methylhexyl]methylamino]ethyl]-N-ethyl-4,5-dimethoxybenzamide, 2,3-dihydroxybutanedioic acid salt]	20.2 µM	> 25 µM	> 25 µM	Decrease in MAP [5]: 20 mm Hg; inhibition of calcium flux (Human mononuclear cells): inhibited calcium flux in a dose dependent manner
COc1ccc(C(C#N)(CCCN(C)CCc2cc(OC)c(OC)cc2C)C(C)C)cc1OC (stereo not drawn) [Example 6, α-[3-[[2-(4,5-dimethoxy-2-methylphenyl)ethyl]methylamino]propyl]-3,4-dimethoxy-α-(1-methylethyl)benzeneacetonitrile, 2,3-dihydroxybutanedioic acid salt]				vascular resistance in the brain (adult male SHR): 149 mm Hg min. g/ml
COc1ccc(C(C#N)(CCCN(C)CCc2cc(OC)c(OC)cc2/C=C/C(C)=O)C(C)C)cc1OC (stereo not drawn) [Example 7, α-[3-[[2-[4.5-dimethoxy-2-(3-oxo-1E-butenyl)phenyl]ethyl]methylamino]-propyl]-3,4-dimethoxy-α-(1-methylethyl)benzeneacetonitrile]	15.5 µM		7.9 µM	
